Measured values published in article PMC3201767 (Chemical communications (Cambridge, England), 2011).

T1: His6-Pd2,6ST(16–497) (Photobacterium damselae, UniProt O66375)
T1 sequence (O66375 16-497): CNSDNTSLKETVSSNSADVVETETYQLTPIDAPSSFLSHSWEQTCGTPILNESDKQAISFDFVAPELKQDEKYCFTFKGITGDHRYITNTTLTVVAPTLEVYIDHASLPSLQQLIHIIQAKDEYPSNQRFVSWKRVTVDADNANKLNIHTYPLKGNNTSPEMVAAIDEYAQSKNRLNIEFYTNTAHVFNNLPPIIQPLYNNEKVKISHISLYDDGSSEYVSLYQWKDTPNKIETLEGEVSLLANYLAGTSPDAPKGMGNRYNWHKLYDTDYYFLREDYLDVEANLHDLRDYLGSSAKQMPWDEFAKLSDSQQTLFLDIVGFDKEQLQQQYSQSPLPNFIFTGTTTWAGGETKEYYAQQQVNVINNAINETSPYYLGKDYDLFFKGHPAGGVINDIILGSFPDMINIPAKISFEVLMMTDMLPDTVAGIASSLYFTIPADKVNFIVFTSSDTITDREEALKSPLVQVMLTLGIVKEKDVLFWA

B1: Psp2,6ST(15–501)-His6 (Photobacterium sp. JT-ISH-224) (protein)
chain: CNNSEENTQSIIKNDINKTIIDEEYVNLEPINQSNISFTKHSWVQTCGTQQLLTEQNKESISLSVVAPRLDDDEKYCFDFNGVSNKGEKYITKVTLNVVAPSLEVYVDHASLPTLQQLMDIIKSEEENPTAQRYIAWGRIVPTDEQMKELNITSFALINNHTPADLVQEIVKQAQTKHRLNVKLSSNTAHSFDNLVPILKELNSFNNVTVTNIDLYDDGSAEYVNLYNWRDTLNKTDNLKIGKDYLEDVINGINEDTSNTGTSSVYNWQKLYPANYHFLRKDYLTLEPSLHELRDYIGDSLKQMQWDGFKKFNSKQQELFLSIVNFDKQKLQNEYNSSNLPNFVFTGTTVWAGNHEREYYAKQQINVINNAINESSPHYLGNSYDLFFKGHPGGGIINTLIMQNYPSMVDIPSKISFEVLMMTDMLPDAVAGIASSLYFTIPAEKIKFIVFTSTETITDRETALRSPLVQVMIKLGIVKEENVLFWA

Experiments:
Assay in all cases: apparent sialyltransferase kinetics
His6-Pd2,6ST(16–497) = molecular target: T1, His6-Pd2,6ST(16–497); format: biochemical; conditions: read-out: His6-Pd2,6ST(16-497); acceptor; donor CMP-Neu5Ac; apparent value
Psp2,6ST(15–501)-His6 = Psp2,6ST(15–501)-His6 (Photobacterium sp. JT-ISH-224, UniProt A8QYL1); format: biochemical; conditions: read-out: Psp2,6ST(15-501)-His6; acceptor; donor CMP-Neu5Ac; apparent value
[1] = substrate: Cc1cc(=O)oc2cc(O[C@@H]3O[C@H](CO)[C@@H](O[C@@H]4O[C@H](CO)[C@H](O)[C@H](O)[C@H]4O)[C@H](O)[C@H]3O)ccc12; format: biochemical, Photobacterium sp. JT-ISH-224; conditions: acceptor; donor CMP-Neu5Ac; apparent value; pH 2.6

Row | Molecule | Km (His6-Pd2,6ST(16–497)) | Km (Psp2,6ST(15–501)-His6) | Km [1] | kcat [1] | kcat/Km [1]
1 | CC(=O)N[C@H]1[C@@H](O[C@H](C)[C@H](N)C(=O)O)O[C@H](CO)[C@H](O)[C@@H]1O [compound 13, GalNAcαThr] | 10 ± 1 mM | 5.9 ± 1.6 mM |  |  | 
2 | CC(=O)N[C@H]1[C@@H](OC[C@H](N)C(=O)O)O[C@H](CO)[C@H](O)[C@@H]1O [compound 12, GalNAcαSer] | 1.6 ± 0.2 mM | 1.4 ± 0.1 mM |  |  | 
3 | GalNAcα2AA [compound 11] | 51 ± 5 mM | 9.5 ± 2.7 mM |  |  | 
4 | B1 |  |  | 0.36 ± 0.07 mM | 1.67 ± 0.167 s⁻¹ | 4830 M⁻¹ s⁻¹
